Patent publication US20230000876A1, “TREATING CANCERS WITH A CYCLIN-DEPENDENT KINASE INHIBITOR” (Nuvation Bio Inc., priority 2021, published 2023)

Legend:
[1] = system: U-87MG-luc orthotopic intracranial tumors; test: U-87MG-luc glioblastoma orthotopic intracranial model, survival; type: in vivo, female BALB/c nude mice; conditions: 1 mg/kg PO*QD × 5/7 days (vehicle 37 days)
Experimental: U-87MG-luc cells were derived from U-87MG parental cells acquired from ATCC by stably introducing the gene that encodes the luciferase (luc) protein. The U-87MG-luc cells were cultured at 37° C. in an atmosphere of 5% CO2 in air. The tumor cells were routinely subcultured twice weekly. The cells growing in an exponential growth phase were harvested and counted for tumor inoculation.
3×10^5 U-87MG-luc tumor cells were micro-injected into the right lobe (caudate nucleus) of the brain of each mouse. A total of 94 mice were inoculated. Ten days after cell inoculation, bioluminescence were measured by Xenogen IVIS Lumina II machine, 70 mice were selected and randomly assigned into 7 groups based on bioluminescence intensity and bodyweight. The mice were dosed according to Table 25.

ACHN-luc2 = test: CellTiter-Glo anti-proliferation assay, ACHN-luc2; type: cell-based
Experimental: (§1) The anti-proliferation effect of 2 compounds (the compound of formula (I) and temozolomide) in 7 CNS metastasis cell lines (MOLT-4-luc, Nalm-6-luc, NCI-H460-luc, ACHN-luc2, PC-9-luc, H1975-luc, and KM12-luc) was evaluated.
(§2) The plating of cells and compound treatments are shown below in the plate map (Table 12). One plate was needed for the test of 2 compounds (the compound of formula (I) and temozolomide) in one cell line. The compound of formula (I) was tested from 10 μM, 3-fold serial dilution. Temozolomide was tested from 100 μM, 3-fold serial dilution.
(§3) All the cell lines were maintained in culture conditions at 37° C. in an atmosphere with 5% CO2 in air. The tumor cells were routinely subcultured. The cells growing in an exponential growth phase were harvested and counted for plating.
(§4) Cells were counted by haemocytometer with Trypan blue staining. Next, 135 μL of cell suspension were plated into the assay plates according to the plate map and 135 μL of assay medium into the blank wells. The plates were incubated at 37° C., 5% CO2, 95% air and 100% relative humidity overnight.
(§5) 4.4.4 Compound Plate (10×) Preparation and Compound Treatment • 10× concentrate compound plate preparation: Add 198 μL of assay medium into each well of the V-bottom plate; then transfer 2 μL of the stock compound solution of each concentration from the stock plate. Add 2 μL of DMSO into the Blank and Control wells. Pipette up and down to mix well. This V-plate is designated as the 10× concentrate compound plate. • For day 0 plate, add 15 μL of the DMSO-medium into the Control wells. The final DMSO concentration was 0.1%. Then directly proceed to cell viability assay. • For assay plate, add 15 μL of the compound-medium of each well from the 10× concentrate compound plate into the cells in 96-well assay plate according to the plate map. Add 15 μL of the DMSO-medium into the Blank and Control wells. The final DMSO concentration was 0.1%. • Return the assay plate into incubator and incubate for 6 days.
(§6) The procedures were performed according to the Promega CellTiter-Glo Luminescent Cell Viability Assay Kit manual (Promega-G7573). • The CellTiter-Glo buffer was thawed and equilibrated to room temperature prior to use. • CellTiter-Glo Substrate was equilibrated to room temperature prior to use. • The entire liquid volume of CellTiter-Glo Buffer was transferred into the amber bottle containing CellTiter-Glo Substrate to reconstitute the lyophilized enzyme/substrate mixture. This forms the CellTiter-Glo Reagent. • The contents were mixed by gently vortexing to obtain a homogeneous solution. • The plate was equilibrated and its contents to room temperature for approximately 30 minutes. 75 μL (equal to the half volume of culture medium present in each well) CellTiter-Glo • Reagent was added in each well. Plates were covered with aluminum foil to protect from light. • The contents were mixed for 2 minutes on an orbital shaker to induce cell lysis. • The plate was incubated at room temperature for 20 minutes to stabilize luminescent signal. • Record luminescence on the 2104 EnVision plate reader.
(§7) Inhibition rate (IR) of the tested compounds was determined by the following formula: IR (%)=(1−(RLU compound−RLU day0)/(RLU control−RLU day0))*100%. The inhibitions of different dose of compound were calculated in Excel file, and then were used to plot inhibition curves and evaluate related parameters, such as Min (%), Max (%) and GI50. The data were interpreted by GraphPad Prism.

H1975-luc = test: CellTiter-Glo anti-proliferation assay, H1975-luc; type: cell-based
Experimental: as §1, §2, §3, §4, §5, §6, §7

PC-9-luc = test: CellTiter-Glo anti-proliferation assay, PC-9-luc; type: cell-based
Experimental: as §1, §2, §3, §4, §5, §6, §7

NCI-H460-luc = test: CellTiter-Glo anti-proliferation assay, NCI-H460-luc; type: cell-based
Experimental: as §1, §2, §3, §4, §5, §6, §7

KM12-luc = test: CellTiter-Glo anti-proliferation assay, KM12-luc; type: cell-based
Experimental: as §1, §2, §3, §4, §5, §6, §7

MOLT-4-luc = test: CellTiter-Glo anti-proliferation assay, MOLT-4-luc; type: cell-based
Experimental: as §1, §2, §3, §4, §5, §6, §7

U-118MG xenograft tumors = test: U-118MG glioma subcutaneous xenograft model; type: in vivo, female CB17 SCID mice; conditions: QD; for Tumor volume (mean ± SEM): 1 mg/kg PO
Experimental: The tumor cells were routinely subcultured twice weekly. The cells growing in an exponential growth phase were harvested and counted for tumor inoculation.
The treatments was started on day 7 after tumor inoculation when the average tumor volume reached 150 mm^3. 60 mice were selected and assigned into 6 groups. The testing articles were administrated to the mice according to Table 1.
(§8) Tumor size was measured twice weekly in two dimensions using a caliper, and the volume was expressed in mm^3 using the formula: V=0.5 a×b^2 where a and b are the long and short diameters of the tumor, respectively. The tumor sizes are then used for the calculation of T/C and TGI values.
(§9) The T/C value (in percent) is an indication of antitumor effectiveness; T and C are the mean volume of the treated and control groups, respectively, on a given day.
(§10) TGI was calculated for each group using the formula: TGI (%)=[1−(Ti−T0)/(Vi−V0)]×100; Ti is the average tumor volume of a treatment group on PG-D28 T0 is the average tumor volume of the treatment group on the day of treatment start, Vi is the average tumor volume of the vehicle control group on the same day with Ti, and V0 is the average tumor volume of the vehicle group on the day of treatment start.
All Groups were taken down on PG-D28, tumor, plasma and brain samples were collected.
For statistical analysis for difference among groups 2-6 and group 1, a one-way ANOVA was performed. All the analysis were conducted using GraphPad Prism software. p<0.05 was considered to be statistically significant.

Nalm-6-luc = test: CellTiter-Glo anti-proliferation assay, Nalm-6-luc; type: cell-based
Experimental: as §1, §2, §3, §4, §5, §6, §7

VCap prostate cancer = test: Non-castrated VCap prostate cancer model; type: in vivo, male CB17/Scid mice; conditions: Group 2: Enzalutamide 20 mg/kg p.o. QD * 26 days
Experimental: Compound (I), enzalutamide, and abiraterone were tested in non-castrated VCap prostate cancer model in male CB17/Scid mice.
All treatment groups reduced mean tumor volume.

[2] = system: tumor fragments from a mCRPC patient; test: Enzalutamide-resistant patient-derived xenograft prostate model (ST2347 PDX); type: in vivo, male Balb/c nude mice; conditions: 30 mg/kg oral QD
22Rv1 tumors = test: 22Rv1 prostate tumor model (Example 3); type: in vivo, male Balb/c nude mice; conditions: for Tumor volume (mean ± SEM): 30 mg/kg PO QD
Experimental: The in vivo anti-tumor efficacy of the compound of formula (I) either alone or in combination with enzalutamide prostate tumor model on male Balb/c nude mice was evaluated. The cell line is derived from a xenograft that was serially propagated in mice after castration—induced regression and relapse of the parental, androgen-dependent CWR22 xenograft.
In the study, the compound of formula (I) was dosed orally (po) once daily (QD) and enzalutamide, when administered, was dosed orally once daily for 25 days, as shown in Table 8.
The 22Rv1 tumor cells were maintained in vitro in RPMI1640 medium supplemented with 10% heat inactivated fetal bovine serum at 37° C. in an atmosphere of 5% CO2 in air. The tumor cells were routinely subcultured twice weekly. The cells growing in an exponential growth phase were harvested and counted for tumor inoculation.
Each mouse was inoculated subcutaneously at the right flank with 22Rv1 tumor cells (5*10^6) with 50% Matrigel for tumor development. The treatments were started on day 7 after tumor inoculation when the average tumor volume reached 94 mm^3. A total of 48 mice were selected and assigned into 6 groups. The testing articles were administrated to the mice according to Table 8.
as §8, with “The major endpoint was to see if the tumor growth could be delayed or mice could be cured. Tumor” for “Tumor”
as §9
as §10, with “PG-Di,” for “PG-D28”
All groups were taken down on PG-D24 and PG-D25 when the average tumor size of vehicle group reached 2305 mm^3.
Summary statistics, including mean and the standard error of the mean (SEM), are provided for the tumor volume of each group at each time point. For comparison among groups, a one-way ANOVA was performed. All the analysis were conducted using GraphPad Prism software. p<0.05 was considered to be statistically significant.

[3] = inhibition rate, 6 days, Compound (I) from 10 μM, temozolomide from 100 μM, 3-fold, 9 points
[4] = 144 h, 6 days incubation, read-out: Absolute GI50
[5] = Group 6: Temozolomide 1 mg/kg PO, PG-D27
[6] = enzalutamide 30 mg/kg QD, PG-D24

With `Cn1nnc2c(C(N)=O)ncn2c1=O` [Temozolomide, reference compound] the Median survival [1] was 44 days, the GI50 (ACHN-luc2; ACHN-luc2, 144 h, 6 days incubation, read-out: Absolute GI50) was > 100 µM and the “Max (%)” value (ACHN-luc2; [3]) was 20.0%. The “Min (%)” value (ACHN-luc2; [3]) was 2.8%, the GI50 (H1975-luc; [4]) was > 100 µM and the “Max (%)” value (H1975-luc; [3]) was 13.0%. The “Min (%)” value (H1975-luc; [3]) was −0.3%, the GI50 (PC-9-luc; [4]) was > 100 µM and the “Max (%)” value (PC-9-luc; [3]) was 5.6%. The “Min (%)” value (PC-9-luc; [3]) was −13.1%, the GI50 (NCI-H460-luc; NCI-H460-Luc, 144 h, 6 days incubation, read-out: Absolute GI50) was > 100 µM and the “Max (%)” value (NCI-H460-luc; [3]) was 7.2%. The “Min (%)” value (NCI-H460-luc; [3]) was 4.8%, the GI50 (KM12-luc; KM12-Luc, 144 h, 6 days incubation, read-out: Absolute GI50) was > 100 µM and the “Max (%)” value (KM12-luc; [3]) was 1.6%. The “Min (%)” value (KM12-luc; [3]) was −12.1%, the GI50 (MOLT-4-luc; [4]) was > 100 µM and the “Max (%)” value (MOLT-4-luc; [3]) was 23.2%. For the same compound, the “Min (%)” value (MOLT-4-luc; [3]) was −2.2%, the “Tumor volume (mean ± SEM)” value (U-118MG xenograft tumors; day 0) was 154 ± 12 mm^3 and the “Tumor volume (mean ± SEM)” value (U-118MG xenograft tumors; day 3) was 239 ± 18 mm^3. For the same compound, the “Tumor volume (mean ± SEM)” value (U-118MG xenograft tumors; day 7) was 306 ± 17 mm^3, the “Tumor volume (mean ± SEM)” value (U-118MG xenograft tumors; day 10) was 346 ± 22 mm^3 and the “Tumor volume (mean ± SEM)” value (U-118MG xenograft tumors; day 14) was 358 ± 22 mm^3. The “Tumor volume (mean ± SEM)” value (U-118MG xenograft tumors; day 17) was 395 ± 30 mm^3, the “Tumor volume (mean ± SEM)” value (U-118MG xenograft tumors; day 21) was 411 ± 31 mm^3 and the “Tumor volume (mean ± SEM)” value (U-118MG xenograft tumors; day 24) was 423 ± 35 mm^3. For the same compound, the “Tumor volume (mean ± SEM)” value (U-118MG xenograft tumors; day 28) was 473 ± 44 mm^3, the T/C (U-118MG xenograft tumors; [5]) was 74.94% and the TGI (U-118MG xenograft tumors; [5]) was 33.24%. For the same compound, the “Tumor Size” value (U-118MG xenograft tumors; [5]) was 473 ± 44 mm^3, the GI50 (Nalm-6-luc; [4]) was > 100 µM and the “Max (%)” value (Nalm-6-luc; [3]) was 22.9%. For the same compound, the “Min (%)” value (Nalm-6-luc; [3]) was 6.5%.
`CNC(=O)c1ccc(N2C(=S)N(c3ccc(C#N)c(C(F)(F)F)c3)C(=O)C2(C)C)cc1F` [Enzalutamide, reference compound] was tested, and the “Tumor volume (mean ± SEM)” value (VCap prostate cancer; Day 0) was 171.8 ± 6.1 mm^3, the “Tumor volume (mean ± SEM)” value (VCap prostate cancer; Day 4) was 287.4 ± 17^ mm^3 and the “Tumor volume (mean ± SEM)” value (VCap prostate cancer; Day 7) was 352.2 ± 28.8 mm^3. For the same compound, the “Tumor volume (mean ± SEM)” value (VCap prostate cancer; Day 11) was 542.8 ± 50.7 mm^3, the “Tumor volume (mean ± SEM)” value (VCap prostate cancer; Day 14) was 662.7 ± 51.7 mm^3 and the “Tumor volume (mean ± SEM)” value (VCap prostate cancer; Day 18) was 761.9 ± 60.9 mm^3. For the same compound, the “Tumor volume (mean ± SEM)” value (VCap prostate cancer; Day 21) was 891.2 ± 82.8 mm^3, the “Tumor volume (mean ± SEM)” value (VCap prostate cancer; Day 25) was 1005.9 ± 71.4 mm^3 and the “Antitumor activity over the course of the treatment” value [2] was “minimal effect”. The “Tumor volume (mean ± SEM)” value (22Rv1 tumors; day 0) was 94 ± 4 mm^3, the “Tumor volume (mean ± SEM)” value (22Rv1 tumors; day 3) was 177 ± 13 mm^3 and the “Tumor volume (mean ± SEM)” value (22Rv1 tumors; day 7) was 345 ± 23 mm^3. The “Tumor volume (mean ± SEM)” value (22Rv1 tumors; day 10) was 507 ± 53 mm^3, the “Tumor volume (mean ± SEM)” value (22Rv1 tumors; day 14) was 825 ± 65 mm^3 and the “Tumor volume (mean ± SEM)” value (22Rv1 tumors; day 17) was 1115 ± 65 mm^3. The “Tumor volume (mean ± SEM)” value (22Rv1 tumors; day 21) was 1531 ± 143 mm^3, the “Tumor volume (mean ± SEM)” value (22Rv1 tumors; day 24) was 1814 ± 186 mm^3 and the T/C (22Rv1 tumors; [6]) was 78.69%. It also gave a TGI (22Rv1 tumors; [6]) of 22.17%.
